Measured values: paper PMC11969438 (Inorganic Chemistry Frontiers, 2025)

Key:
[1] = tested on: THP1-Dual, HCT116, HCT116/OxR and CT-26 cells; test: MTT-based cell viability assay, 72 h, statements over all investigated cell lines; design: species or system human and murine; conditions: none of the investigated cell lines vulnerable, read-out: IC50 of free single agent
Protocol: Cell models were seeded (2–2.5 × 10^3 cells per well) in 96-well plates. After 24 h of recovery, the compounds were applied at the concentrations indicated in triplicate. Cell viability was determined after 72 h of continuous drug incubation using an MTT-based cell viability assay (EZ4U, Biomedica, Vienna, Austria) according to the manufacturer's recommendations. Absorbance was measured at 450 nm (vs. 620 nm as reference) using a multimode microplate reader (Tecan Spark, Zurich, Switzerland). Half-maximal inhibitory concentrations (IC50 values) were derived via interpolation from dose–response curves, modeled with the four-parameter logistic (4PL) nonlinear regression model in GraphPad Prism (La Jolla, CA, USA) from at least three independent experiments.

[2] = tested on: IRF pathway (STING-dependent); test: IRF-inducible luciferase reporter in THP1-Dual reporter cell model; format: cell-based, human; conditions: for EC50: 24 h exposure, normalized to cell viability, oxaliplatin in combinations 5 μM
Description: (§1) The THP1-Dual™ reporter cell model for simultaneously monitoring the activity of the IRF and NF-κB pathway contains an IRF-inducible luciferase reporter under the control of an ISG54 minimal promoter in conjunction with five interferon (IFN)-stimulated response elements, and an induced SEAP driven by an IFN-β minimal promoter fused to five copies of the NF-κB consensus transcriptional response element and three copies of the c-Rel binding site. The luciferase and SEAP reporter are measurable in the cell culture supernatant using QUANTI-Luc™ 4 Lucia/Gaussia (InvivoGen) and QUANTI-Blue™ (InvivoGen) solution, respectively. Cells were seeded at 1 × 10^5 cells per well in 96-well plates in RPMI-1640 medium, supplemented with 10% FCS, L-glutamine and Pen-Strep. After 2 h of recovery, the compounds were applied at the concentrations indicated in triplicate. The cell culture supernatant (SN) was collected after 24 h of drug incubation and secreted luciferase and SEAP reporter levels were measured according to the manufacturer's recommendations. In brief, for the detection of luciferase, 20 μL of SN were transferred into 96-well white opaque plates, and 30 μL of QUANTI-Luc™ reagent were added per well using an injector module in a multimode microplate reader (Tecan Spark, Zurich, Switzerland). Luminescence was recorded at a reading time of 0.1 second. For the detection of SEAP, 10 μL of SN were transferred to 96-well plates and 90 μL of QUANTI-Blue™ were added per well. Absorbance was measured at 620 nm. Half-maximal effective concentrations (EC50 values) were derived via interpolation from dose–response curves, modeled with the four-parameter logistic (4PL) nonlinear regression model in GraphPad Prism. For comparison, the maximal response rate of the prodrug was depicted in the percent of the maximal response rate achieved by SR-717 or MSA-2 (%EMAX) at the respective concentrations tested. Activatability, tested in co-incubation experiments with AA (50 μM), was expressed as the area under the curve (AUC) ratio of +AA vs. −AA-treated cells. The STING-dependency of the reporter induction was tested by co-administration of the STING inhibitor H-151 (10 μM), added to the cell culture medium 2 h before applying the investigated compounds. In addition to monitoring secreted reporter levels, the cell viability of the reporter cells was determined after 24 h of drug treatment by an MTT-based cell viability assay.

[3] = tested on: NF-κB pathway (STING-dependent); test: NF-κB-inducible SEAP reporter in THP1-Dual reporter cell model; format: cell-based, human; conditions: for EC50: 24 h exposure, normalized to cell viability, oxaliplatin in combinations 5 μM
Description: as §1

THP1-Dual cells [4] = test: Western blot analysis of STING downstream pathway, DNA damage and cell death markers; format: cell-based, human; conditions: 24 h
Protocol: The THP1-Dual cell model was seeded at 1 × 10^6 cells per well in six-well plates. After 24 h of recovery, the compounds were applied at the concentrations indicated. After 24 h of drug exposure, whole-cell protein isolation was performed as described previously.[14] Sodium dodecyl sulfate polyacrylamide gel electrophoresis was performed. Proteins were transferred onto polyvinylidene difluoride membranes (Thermo Scientific, Waltham, MA, USA). Antibodies targeting STING (##13 647; 1 : 1000), phospho-STING (#19 781; 1 : 500), TBK1 (#3504; 1 : 500), IRF-3 (#4302; 1 : 500), phospho-p65 (#3033; 1 : 500), ISG15 (#2743; 1 : 1000), caspase-3 (#9665; 1 : 1000), cleaved caspase-3 (#9661; 1 : 1000), PARP (#9532; 1 : 1000), and cleaved PARP (#9541; 1 : 1000) were purchased from Cell Signaling Technology (Danvers, MA, USA). The p65 antibody (#sc-372; 1 : 1000) was purchased from Santa Cruz and the phospho-H2A.X antibody (#05-636-I; 1 : 500) was obtained from Merck (Darmstadt, Germany). The anti-β-actin (#5441; 1 : 2000) antibody was obtained from Sigma-Aldrich. The anti-mouse IgG (#A0168; 1 : 10 000) horseradish peroxidase (HRP)-coupled secondary antibody was purchased from Sigma-Aldrich, and the anti-rabbit IgG (#7074; 1 : 5000) HRP-linked secondary antibody was obtained from Cell Signaling Technology.

THP1-Dual cells [5] = test: Quantitative RT-PCR of target genes downstream of STING; format: cell-based, human; conditions: 24 h, prodrugs 100 μM, MSA-2 25 μM
Protocol: The THP1-Dual cell model was seeded at 1 × 10^6 cells per well in six-well plates. After 24 h of recovery, the compounds were applied at the concentrations indicated. After 24 h of drug exposure, total RNA was isolated using TRIzol reagent (Thermo Fisher Scientific, MA, USA), as described previously.[12] RNA was reverse transcribed into cDNA using RevertAid Reverse Transcriptase (Thermo Fisher Scientific). Real-time PCR was performed using the GoTaq® RT-qPCR system (Promega) with a CFX96 Touch Real-Time PCR Detection System (Bio-Rad Laboratories). Relative mRNA levels were quantified using the 2^−ddCT method.[54] RPL41 was used as a housekeeping gene. Human-specific primers were purchased from Eurofins Genomics (Ebersberg, Germany) with the following sequences: RPL41: fwd (5′-[…]-3′), rev (5′-[…]-3′); IFNB1: fwd (5′-CTTGGATTCCTACAAAGAAGCAGC-3′), rev (5′-[…]-3′); ISG15: fwd (5′-[…]-3′), rev (5′-[…]-3′); IFIT1: fwd (5′-[…]-3′), rev (5′-[…]-3′); CXCL10: fwd (5′-[…]-3′), rev (5′-[…]-3′); and CCL5: fwd (5′-[…]-3′), rev (5′-[…]-3′).

THP1-Dual cells [6] = test: Cytokine and chemokine secretion in cell culture supernatant, Luminex; format: cell-based, human; conditions: 24 h, prodrug 100 μM, MSA-2 25 μM
Protocol: Quantification of secreted protein targets in either cell culture SN or in plasma of treated animals was performed using a ProcartaPlex (96-well) multiplex assay panel (Thermo Fisher Scientific) in the xMAP detection platform (Luminex). For the in vitro detection of secreted proteins, THP1-Dual cells were seeded at 1 × 10^5 cells per well in 96-well plates in RPMI-1640 medium, supplemented with 10% FCS, L-glutamine and Pen-Strep. After 24 h of recovery, the compounds were applied at the concentrations indicated in triplicate.
After 24 h of drug incubation, the cell culture SN of technical triplicate was collected, pooled, centrifuged (400g, 10 min, 4 °C), transferred into a fresh tube, and stored at −20 °C.
Next, the ProcartaPlex (96-well) multiplex assay panel was performed according to the manufacturer's recommendations. In brief, the capture bead mix was incubated with test samples (undiluted SN or mouse plasma) or standard mix overnight. The SN of three independent experiments or the plasma of four animals per treatment group was loaded onto the multiplex assay plate. Next, biotinylated detection antibody mix and Streptavidin-PE were added to the plate. Following the recommended washing steps, the samples were incubated in a reading buffer and were measured using a Luminex xMAP platform (Bio-Plex MAGPIX Multiplex Reader; Bio-Rad Laboratories) and analyzed using xPONENT software.

CT-26 tumors = test: Anticancer efficacy in vivo, syngeneic colorectal carcinoma; design: species or system BALB/c mice; conditions: i.v. twice a week for two weeks, equimolar to 9 mg kg^−1 oxaliplatin
Protocol: Tumor size was determined daily via manual caliper measurement. […] Animals were euthanized via cervical dislocation.

[7] = Reduction kinetics with 10 eq. L-ascorbic acid in phosphate buffer, UHPLC; format: physicochemical; conditions: 10 eq. AA, PB pH 7.4, 20 °C; for original compound left in presence of AA: after 5 h
Protocol: (§2) PB (150 mM, pH 7.4) containing 1 mM platinum compound was incubated at 20 °C, with and without the addition of 10 eq. of AA. The reaction was monitored using a Thermo Scientific Dionex UltiMate 3000 UHPLC system with a Waters Acquity UPLC BEH C18 1.7 μm 3.0 × 50 mm column. Milli-Q water containing 0.1% formic acid and acetonitrile containing 0.1% formic acid were used as eluents. A gradient of 5–95% over 5 min was used with a flow of 0.6 mL min^−1. To evaluate the current state of the reaction, the peak area of the parental complex was used.

[8] = Hydrolytic stability in phosphate buffer, UHPLC; format: physicochemical; conditions: 1 mM, 150 mM PB pH 7.4, 20 °C, over 5 h
Protocol: as §2

THP1-Dual cells [9] = test: Intracellular platinum accumulation in vitro by ICP-MS; format: cell-based, human; conditions: 3 h exposure, compared to oxaliplatin
Protocol: The THP1-Dual cell model was seeded at 1 × 10^6 cells per well in six-well plates. After 24 h of recovery, the compounds were applied at the concentrations indicated in triplicate. After 3 h of drug exposure, the cells were prepared as published previously.[13] […] The lysate was filled up to 8 mL with water. The platinum concentration was determined by ICP-MS analysis. Platinum and rhenium standards were derived from CPI International (Amsterdam, the Netherlands). The total platinum content was determined with an Agilent 7800 quadrupole-based ICP-MS instrument (Agilent Technologies, Tokyo, Japan) equipped with an Agilent SPS 4 autosampler (Agilent Technologies, Tokyo, Japan) and a MicroMist nebulizer at a sample uptake rate of approximately 0.2 mL min^−1. […] Argon was used as a plasma gas (15 L min^−1) and as a carrier gas (∼1.1 L min^−1). The dwell time was set to 0.1 s and the measurements were performed in 12 replicates with 100 sweeps. Rhenium served as an internal standard for platinum.

[10] = H-151 10 μM added 2 h before the compounds
[11] = 24 h, maximal response relative to SR-717

COc1cc2cc(C(=O)CCC(=O)O)sc2cc1OC [MSA-2]
IC50 [1]: > 75 µM
IRF EC50 ratio fold MSA-2 ([2]; 24 h): 1.0 fold
activation of IRF signaling pathway ([2]; 24 h): robustly activated
fold lower IRF-inducing activity compared to SR-717 ([2]; 24 h): ~3.1 fold
IRF %EMAX of MSA-2 ([2]; 24 h, maximal response relative to MSA-2, highest tested dose 100 μM): 100%
EC50 [2]: 9.1 µM
impact of reducing conditions on IRF-induced reporter signal (AUC ratio +AA/−AA) ([2]; AA 50 μM): no notable modulation
NF-κB EC50 ratio fold MSA-2 ([3]; 24 h): 1.0 fold
activation of NF-κB signaling pathway ([3]; 24 h): robustly activated
NF-κB %EMAX of MSA-2 ([3]; 24 h, maximal response relative to MSA-2): 100%
EC50 [3]: 17.7 µM
DNA damage (p-H2A.X upregulation, cleavage of caspase-3 and PARP) (THP1-Dual cells [4]): induced DNA damage
induction of ISG15 (THP1-Dual cells [4]): triggered
phosphorylation of NF-κB (p65) (THP1-Dual cells [4]): only detected in cells treated with MSA-2
mRNA induction of immune response genes (IFN-β, ISG15, IFIT1, CXCL10, CCL5) (THP1-Dual cells [5]): distinctly induced
secretion of cytokines and chemokines (THP1-Dual cells [6]): induced distinct secretion of cytokines and chemokines
tumor growth (CT-26 tumors): significantly inhibited malignant growth

CC(=O)[O][Pt-2]12([O]C(=O)c3cc(F)c(F)cc3N)([NH2+][C@@H]3CCCC[C@H]3[NH2+]1)[O]C(=O)C(=O)[O]2 [Ox-Bz-F2-NH2]
original compound left in presence of AA [7]: approximately 80%

CCc1ccc(NC(=O)Nc2c[nH]c3ccccc23)cc1 [H-151]
effect on agonist- and prodrug-induced IRF reporter signal [2, 10]: completely abolished
effect on agonist- and prodrug-induced NF-κB reporter signal [3, 10]: completely abolished

COCCOCCOCCOCCC(=O)[O][Pt-2]12([O]C(=O)c3cc(F)c(F)cc3NC(=O)c3ccc(-n4ccnc4)nn3)([NH2+][C@@H]3CCCC[C@H]3[NH2+]1)[O]C(=O)C(=O)[O]2 [Ox-SR-PEG-Es]
hydrolytic stability [8]: No significant hydrolysis
original prodrug remaining in presence of AA ([7]; after ∼3 h): only traces
cellular platinum accumulation (THP1-Dual cells [9]): significantly higher platinum levels compared to oxaliplatin
IRF %EMAX of SR-717 [2, 11]: 66%
EC50 [2]: 12.4 µM
NF-κB %EMAX of SR-717 [3, 11]: 52%
EC50 [3]: 35.1 µM

CC(=O)Nc1cc(F)c(F)cc1C(=O)[O][Pt-2]12([O]C(C)=O)([NH2+][C@@H]3CCCC[C@H]3[NH2+]1)[O]C(=O)C(=O)[O]2 [Ox-Bz-F2-NHAc]
original compound left in presence of AA [7]: 40%

CC(=O)[O][Pt-2]12([O]C(=O)c3ccc(F)c(F)c3)([NH2+][C@@H]3CCCC[C@H]3[NH2+]1)[O]C(=O)C(=O)[O]2 [Ox-Bz-F2]
original compound left in presence of AA [7]: approximately 95%

CC(=O)[O][Pt-2]12([O]C(=O)c3ccccc3)([NH2+][C@@H]3CCCC[C@H]3[NH2+]1)[O]C(=O)C(=O)[O]2 [Ox-Bz]
original compound left in presence of AA [7]: approximately 95%
